# Test results published in patent US10934332B2, “Structure-based peptide inhibitors that target the Tau VQIINK fibrillization segment” (THE REGENTS OF THE UNIVERSITY OF CALIFORNIA, priority 2017, dated 2021).
# Read-outs that look alike come from different tables or passages of the source. No end group written: not given here.
# Columns and labels:
# [1] = tested on: HEK293 biosensor cells stably expressing full-length Tau 4R1N P301S-EYFP; test: Biosensor cell seeding with Tau40 fiber grown in the presence of inhibitor; type: cell-based, human; conditions: cells seeded with 125 nM Tau40 fiber grown with two-fold excess of inhibitor; about 61% in the absence of inhibitor
# Text: Cells seeded with Tau40 fiber grown with MINK or WINK reduced the percentage of seeded cells to 23 and 41%, respectively.
# (§1) Engineered HEK293 cell lines stably expressing Tau40-YFP P301S, referred to as “tau biosensor cells” were engineered by Marc Diamond's lab at UTSW. Cells were maintained in DMEM (Life Technologies, cat. 11965092) supplemented with 10% (vol/vol) FBS (Life Technologies, cat. A3160401), 1% penicillin/streptomycin (Life Technologies, cat. 15140122), and 1% Glutamax (Life Technologies, cat. 35050061) at 37° C., 5% CO2 in a humidified incubator. Tau40 aggregates were prepared in PBS (pH 7.4) with 1 mM DTT by shaking 25 μM Tau40 with 0.5 mg/ml heparin in the presence or absence inhibitor peptide, as indicated. Fibers were sonicated in a cuphorn water bath for 3 minutes before seeding cells. For seeding, fibers were diluted in OptiMEM (Life Technologies, cat. 31985070) and transfected using Lipofectamine 2000 (Life Technologies, cat. 11668027) according to the manufacturer's instructions. After seeding, cells were imaged using a ZEISS Axio Observer D1 fluorescence microscope using the YFP fluorescence channel and Tau aggregates were counted in ImageJ software.
# [2] = tested on: Full-length Tau-YFP biosensor cells seeded with pre-formed Tau40 fibers; type: cell-based, human; conditions: for inhibition of seeding by pre-formed Tau40 fibers (in words): pre-formed Tau40 fibrils incubated with inhibitor before applying to biosensor cells
# Method: To test whether VQIINK (SEQ ID NO: 11) inhibitors can cap pre-formed fibers to block their spread, Tau40 amyloid fibrils were incubated with varying concentrations of inhibitor before applying to biosensor cells and measuring seeding. In addition, a third VQIINK (SEQ ID NO: 11) inhibitor, RINK which contains an Arg at position 4, was also tested.
# as §1
# Tau40 = biological target: T1, Tau40 (Homo sapiens, UniProt P10636); test: ThT assay of Tau40 fibril formation; type: biochemical; conditions: heparin, shaking 700 rpm, 37° C.
# T1 construct: Human Tau40 (residues 1-441) was expressed in pET28b; His-tag (C); made in house; host or cells: BL21-Gold E. coli
# T1 sequence (P10636 1-441 isoform P10636-8): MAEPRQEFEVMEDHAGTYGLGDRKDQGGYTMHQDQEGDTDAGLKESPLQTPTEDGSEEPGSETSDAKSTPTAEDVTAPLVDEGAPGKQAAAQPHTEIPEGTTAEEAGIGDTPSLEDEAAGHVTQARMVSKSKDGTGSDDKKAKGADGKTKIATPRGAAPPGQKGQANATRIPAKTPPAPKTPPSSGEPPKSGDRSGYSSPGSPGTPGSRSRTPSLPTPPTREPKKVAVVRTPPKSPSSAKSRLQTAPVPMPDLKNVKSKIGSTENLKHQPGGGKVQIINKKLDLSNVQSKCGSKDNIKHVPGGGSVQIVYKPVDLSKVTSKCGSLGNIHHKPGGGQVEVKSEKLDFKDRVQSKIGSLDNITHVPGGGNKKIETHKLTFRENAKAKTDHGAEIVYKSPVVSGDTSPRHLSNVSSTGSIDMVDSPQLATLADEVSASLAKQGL
# Method: The effect on fibril formation of Tau40 of the two resulting VQIINK (SEQ ID NO: 11) inhibitors, MINK (which contains a Met at position 4 to disrupt interface A) and WINK (which instead contains a Trp) was evaluated in vitro using a ThT assay.
# Human Tau40 (residues 1-441) was expressed in pET28b with a C-terminal His-tag in BL21-Gold E. coli cells grown in TB to an OD600=0.8. Cells were induced with 0.5 mM IPTG for 3 hours at 37° C. and lysed by sonication in 50 mM Tris (pH 8.0) with 500 mM NaCl, 20 mM imidazole, 1 mM beta-mercaptoethanol, and HALT protease inhibitor. Cells were lysed by sonication, clarified by centrifugation at 15,000 rpm for 15 minutes, and passed over a 5 ml HisTrap affinity column. The column was washed with lysis buffer and eluted over a gradient of imidazole from 20 to 300 mM. Fractions containing purified Tau40 were dialyzed into 50 mM MES buffer (pH 6.0) with 50 mM NaCl and 1 mM beta-mercaptoethanol and purified by cation exchange as described for K18. Peak fractions were polished on a HiLoad 16/600 Superdex […] in 1×PBS (pH 7.4), and concentrated to ˜20-60 mg/ml by ultrafiltration using a 10 kDa cutoff.
# Concentrated Tau protein was diluted into PBS buffer (pH 7.4) to a final concentration as indicated in the text. Proteins were shaken as solutions containing 75 μM ThT, 0.5 mg/ml heparin, 1 mM DTT, and a two-fold molar excess of inhibitor (when indicated) in 96-well plates with a plastic bead to enhance agitation. ThT fluorescence was measured with excitation and emission wavelengths of 440 and 480 nm, and averaged curves were generated from duplicate measurements.
# [3] = 10 μM Tau40, two-fold mole excess of inhibitor
# [4] = 25 μM Tau40, two-fold mole excess of inhibitor
Substance,percentage of seeded cells (cells with intracellular aggregates) [1] [%],IC50 [2] [µM],inhibition of seeding by pre-formed Tau40 fibers (in words) [2],Tau40 fibril formation (ThT fluorescence) (Tau40; [3]),Tau40 fibril formation (ThT fluorescence) (Tau40; [4]),seeding by Tau40 fibers in biosensor cells (fluorescence images) ([2]; 5 μM inhibitor),seeding by Tau40 fibers in biosensor cells (fluorescence images) ([2]; 25 μM inhibitor)
"DVQMINKKRK [MINK, DVQMINKKRK]",23,22,inhibit seeding by Tau40 fibers in a concentration dependent fashion,completely inhibiting any detectable Tau40 fibril formation for at least 60 hours,reduced Tau40 aggregation to about half,–,–
DVQRINKKRK,–,–,inhibited more poorly than MINK and WINK,–,–,–,–
"DVQWINKKRK [WINK, DVQWINKKRK]",41,25,inhibit seeding by Tau40 fibers in a concentration dependent fashion,reducing the amount of Tau40 aggregation to about half,reduced Tau40 aggregation to about half,–,–
"DVWMINKKRK [W-MINK, DVWMINKKRK]",–,9,–,–,–,Tau40 fibers are still able to induce seeding,seeding by Tau40 fibers is no longer observed
W-WINK: Phase 2 inhibitor: WINK incorporating a Trp steric clash at position 3 (DVWWINKKRK),–,–,performed more poorly than W-MINK,–,–,–,–
